{"source": "paper PMC11125333", "about": "“Self-Immolative Domino Dendrimers as Anticancer-Drug Delivery Systems: A Review” (Pharmaceutics, 2024)", "origin": "cited, not measured here", "set-up": "method as in PMID 25924099", "details": "UV irradiation at 365 nm", "data": [{"smiles": "CC[C@@]1(O)C(=O)OCc2c1cc1n(c2=O)Cc2cc3ccccc3nc2-1", "note": "[CAMP, camptothecin]", "values": [{"measurement": "effect of UV irradiation on cytotoxicity / cell-killing efficacy", "value": "did not increase"}]}]}
